Each structure is given as a SMILES string.

From patent US10017585B2, “Methods and compositions for promoting hair growth” (Momenta Pharmaceuticals, Inc., priority 2010, dated 2018) come the findings set out here.

This test concerns female BALB/c mice. In words: Hair regrowth score in shaved mice, MONC402 in combination with chemotherapy, 27 days. Format: in vivo. Here is the method: The backs of eight week old female BALB/c mice were shaved. Osmotic pumps containing either saline or MONC402 were implanted into 64 mice (32 saline, 32 MONC402). Mice were further divided into groups receiving either saline or Docetaxel (10 mg/kg) once weekly ip starting 13 days after pump implant. Additionally, there was one group of naïve mice (n=4) as well as one group of mice receiving chemotherapy alone (Docetaxel, 10 mg/kg, once weekly ip starting 6 days after pump implant, n=16) which were not subject to shaving or pump implant. Staples used to close the implantation wound were removed 7 days later. Twenty seven days after pump implant, mice were scored for hair growth over the shaved area.

Where [1] appears, read: Docetaxel (10 mg/kg weekly ip) + Saline pump, 27 days.

As to `CC(=O)O[C@@]12CO[C@@H]1C[C@H](O)[C@@]1(C)C(=O)[C@H](O)C3=C(C)[C@@H](OC(=O)[C@H](O)[C@@H](NC(=O)OC(C)(C)C)c4ccccc4)C[C@@](O)([C@@H](OC(=O)c4ccccc4)[C@H]21)C3(C)C` [Docetaxel], where the note is “Docetaxel 10 mg/kg once weekly ip alone, No shaving or pump implant”, the “Number of animals scored 4: full growth (indistinguishable from unshaved)” value is recorded as 16/16. Besides, under setting [1], the “Number of animals scored 1.5” value was 1/16, the “Number of animals scored 2: light growth” value is listed as 7/16, the “Number of animals scored 2.5” value is 2/16 and the “Number of animals scored 3: patchy/heavy growth” value is given as 6/16.
